Data as given in ChEMBL document CHEMBL4043200, “Synthesis and biological evaluation of 8-aryl-2-morpholino-7-O-substituted benzo[e][1,3]oxazin-4-ones against DNA-PK, PI3K, PDE3A enzymes and platelet aggregation” (Bioorg Med Chem, 2017).

Tests used:
[1] = target: DNA-dependent protein kinase catalytic subunit (Homo sapiens, UniProt P78527); test: Inhibition of human DNA-PK catalytic subunit at 10 uM using DNA and [EPPLSQEAFADLWKK] peptide substrate by HTRF assay
[2] = target: Phosphatidylinositol 4,5-bisphosphate 3-kinase catalytic subunit alpha isoform (Homo sapiens) (UniProt P42336); test: Inhibition of wild type PI3K-alpha (unknown origin) assessed as decrease in ATP consumption at 10 uM using phosphotidylinositol bisphosphate and ATP measured after 60 mins by Kinase-Glo reagent based luminescence assay
Chain of Phosphatidylinositol 4,5-bisphosphate 3-kinase catalytic subunit alpha isoform (Homo sapiens) (P42336 whole entry, canonical isoform): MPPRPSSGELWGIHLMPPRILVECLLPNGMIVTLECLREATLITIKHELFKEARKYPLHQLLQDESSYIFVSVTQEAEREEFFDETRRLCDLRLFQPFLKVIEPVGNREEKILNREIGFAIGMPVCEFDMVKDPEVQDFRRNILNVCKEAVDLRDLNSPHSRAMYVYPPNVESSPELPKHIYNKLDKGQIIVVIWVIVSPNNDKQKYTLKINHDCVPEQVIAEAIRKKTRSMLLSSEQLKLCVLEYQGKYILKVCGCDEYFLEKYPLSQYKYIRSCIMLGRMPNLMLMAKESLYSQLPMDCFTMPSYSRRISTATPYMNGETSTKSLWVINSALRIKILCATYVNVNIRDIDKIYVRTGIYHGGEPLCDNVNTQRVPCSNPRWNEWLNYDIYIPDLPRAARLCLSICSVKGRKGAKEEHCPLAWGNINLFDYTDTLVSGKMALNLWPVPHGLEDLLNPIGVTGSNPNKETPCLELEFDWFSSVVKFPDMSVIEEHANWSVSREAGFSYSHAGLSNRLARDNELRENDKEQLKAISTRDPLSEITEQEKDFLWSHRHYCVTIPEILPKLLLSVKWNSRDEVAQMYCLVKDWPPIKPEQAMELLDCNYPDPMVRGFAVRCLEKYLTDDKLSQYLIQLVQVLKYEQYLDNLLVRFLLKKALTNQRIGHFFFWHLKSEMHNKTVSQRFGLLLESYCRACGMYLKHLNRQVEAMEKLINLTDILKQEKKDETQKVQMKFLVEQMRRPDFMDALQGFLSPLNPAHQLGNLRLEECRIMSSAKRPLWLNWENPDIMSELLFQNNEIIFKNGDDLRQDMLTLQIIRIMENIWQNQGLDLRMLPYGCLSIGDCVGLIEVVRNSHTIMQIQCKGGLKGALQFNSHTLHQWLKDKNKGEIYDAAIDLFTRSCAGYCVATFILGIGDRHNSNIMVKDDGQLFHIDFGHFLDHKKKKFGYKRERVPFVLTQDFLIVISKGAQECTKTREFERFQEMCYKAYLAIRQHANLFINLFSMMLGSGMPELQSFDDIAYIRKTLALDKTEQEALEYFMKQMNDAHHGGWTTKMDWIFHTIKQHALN

[3] = target: T1, cGMP-inhibited 3',5'-cyclic phosphodiesterase 3A (Homo sapiens, UniProt Q14432); test: Inhibition of human PDE3A at 10 uM by HTRF assay
T1 sequence (Q14432 whole entry, canonical isoform): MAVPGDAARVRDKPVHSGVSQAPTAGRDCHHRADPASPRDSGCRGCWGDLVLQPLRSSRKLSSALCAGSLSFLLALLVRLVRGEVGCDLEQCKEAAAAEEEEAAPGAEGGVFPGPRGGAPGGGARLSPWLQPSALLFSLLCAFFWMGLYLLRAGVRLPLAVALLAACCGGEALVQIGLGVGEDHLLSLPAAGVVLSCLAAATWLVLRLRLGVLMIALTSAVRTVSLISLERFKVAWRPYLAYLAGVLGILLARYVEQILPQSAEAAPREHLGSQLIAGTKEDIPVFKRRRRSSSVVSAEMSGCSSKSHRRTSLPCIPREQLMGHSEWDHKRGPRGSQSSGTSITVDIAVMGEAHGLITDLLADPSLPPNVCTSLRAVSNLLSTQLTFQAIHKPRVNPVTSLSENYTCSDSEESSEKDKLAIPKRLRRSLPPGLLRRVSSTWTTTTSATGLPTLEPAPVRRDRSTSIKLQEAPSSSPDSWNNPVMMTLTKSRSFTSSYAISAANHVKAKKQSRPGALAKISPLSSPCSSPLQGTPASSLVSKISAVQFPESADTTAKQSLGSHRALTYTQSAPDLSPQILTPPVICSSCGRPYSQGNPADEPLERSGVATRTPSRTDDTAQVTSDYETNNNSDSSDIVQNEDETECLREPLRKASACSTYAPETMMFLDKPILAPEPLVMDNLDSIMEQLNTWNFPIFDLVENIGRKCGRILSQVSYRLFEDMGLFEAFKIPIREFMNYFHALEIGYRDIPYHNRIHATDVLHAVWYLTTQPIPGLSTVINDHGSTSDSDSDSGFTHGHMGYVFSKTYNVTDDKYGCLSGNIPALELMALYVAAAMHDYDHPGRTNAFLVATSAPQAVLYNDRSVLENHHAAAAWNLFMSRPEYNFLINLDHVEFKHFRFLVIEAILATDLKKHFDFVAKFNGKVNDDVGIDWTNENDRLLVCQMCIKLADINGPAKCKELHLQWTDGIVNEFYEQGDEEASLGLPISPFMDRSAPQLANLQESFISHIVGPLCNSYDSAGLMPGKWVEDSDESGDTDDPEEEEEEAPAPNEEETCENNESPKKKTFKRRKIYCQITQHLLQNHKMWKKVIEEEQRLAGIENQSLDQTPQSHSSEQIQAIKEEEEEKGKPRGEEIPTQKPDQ

[4] = target: T2, Phosphatidylinositol 4,5-bisphosphate 3-kinase catalytic subunit delta isoform (Homo sapiens) (UniProt O00329); test: Inhibition of wild type PI3K-delta (unknown origin) assessed as decrease in ATP consumption at 10 uM using phosphotidylinositol bisphosphate and ATP measured after 60 mins by Kinase-Glo reagent based luminescence assay
T2 sequence (whole entry): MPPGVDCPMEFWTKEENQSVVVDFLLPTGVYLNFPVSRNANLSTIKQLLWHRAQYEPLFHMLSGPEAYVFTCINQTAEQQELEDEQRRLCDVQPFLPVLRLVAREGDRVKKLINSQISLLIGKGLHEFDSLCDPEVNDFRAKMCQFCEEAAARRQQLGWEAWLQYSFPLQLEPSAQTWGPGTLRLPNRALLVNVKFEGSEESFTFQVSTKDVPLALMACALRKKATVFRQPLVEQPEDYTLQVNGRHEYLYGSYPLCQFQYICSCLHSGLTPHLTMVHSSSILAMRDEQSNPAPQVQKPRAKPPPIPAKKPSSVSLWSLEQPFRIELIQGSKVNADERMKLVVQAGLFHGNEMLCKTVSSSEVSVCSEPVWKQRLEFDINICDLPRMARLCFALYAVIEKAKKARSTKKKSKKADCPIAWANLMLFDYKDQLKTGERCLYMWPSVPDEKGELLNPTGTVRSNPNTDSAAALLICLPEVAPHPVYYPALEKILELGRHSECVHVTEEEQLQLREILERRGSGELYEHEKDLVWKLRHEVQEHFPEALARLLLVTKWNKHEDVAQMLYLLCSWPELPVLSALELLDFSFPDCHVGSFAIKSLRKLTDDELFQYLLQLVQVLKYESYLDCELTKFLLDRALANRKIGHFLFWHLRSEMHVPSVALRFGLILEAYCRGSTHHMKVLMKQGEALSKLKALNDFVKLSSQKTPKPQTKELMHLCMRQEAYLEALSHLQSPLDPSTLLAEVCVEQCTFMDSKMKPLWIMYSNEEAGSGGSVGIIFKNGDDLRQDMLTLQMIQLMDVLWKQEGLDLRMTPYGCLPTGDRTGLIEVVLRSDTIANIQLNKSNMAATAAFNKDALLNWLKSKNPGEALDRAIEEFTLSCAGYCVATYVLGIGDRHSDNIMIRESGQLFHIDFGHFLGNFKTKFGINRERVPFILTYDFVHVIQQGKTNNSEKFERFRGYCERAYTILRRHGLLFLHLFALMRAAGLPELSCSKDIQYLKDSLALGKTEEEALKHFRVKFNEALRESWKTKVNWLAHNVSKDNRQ

[5] = target: Phosphatidylinositol 4,5-bisphosphate 3-kinase catalytic subunit gamma isoform (Homo sapiens) (UniProt P48736); test: Inhibition of wild type PI3K-gamma (unknown origin) assessed as decrease in ATP consumption at 10 uM using phosphotidylinositol bisphosphate and ATP measured after 60 mins by Kinase-Glo reagent based luminescence assay
Chain of Phosphatidylinositol 4,5-bisphosphate 3-kinase catalytic subunit gamma isoform (Homo sapiens) (P48736 whole entry, looked up, canonical isoform): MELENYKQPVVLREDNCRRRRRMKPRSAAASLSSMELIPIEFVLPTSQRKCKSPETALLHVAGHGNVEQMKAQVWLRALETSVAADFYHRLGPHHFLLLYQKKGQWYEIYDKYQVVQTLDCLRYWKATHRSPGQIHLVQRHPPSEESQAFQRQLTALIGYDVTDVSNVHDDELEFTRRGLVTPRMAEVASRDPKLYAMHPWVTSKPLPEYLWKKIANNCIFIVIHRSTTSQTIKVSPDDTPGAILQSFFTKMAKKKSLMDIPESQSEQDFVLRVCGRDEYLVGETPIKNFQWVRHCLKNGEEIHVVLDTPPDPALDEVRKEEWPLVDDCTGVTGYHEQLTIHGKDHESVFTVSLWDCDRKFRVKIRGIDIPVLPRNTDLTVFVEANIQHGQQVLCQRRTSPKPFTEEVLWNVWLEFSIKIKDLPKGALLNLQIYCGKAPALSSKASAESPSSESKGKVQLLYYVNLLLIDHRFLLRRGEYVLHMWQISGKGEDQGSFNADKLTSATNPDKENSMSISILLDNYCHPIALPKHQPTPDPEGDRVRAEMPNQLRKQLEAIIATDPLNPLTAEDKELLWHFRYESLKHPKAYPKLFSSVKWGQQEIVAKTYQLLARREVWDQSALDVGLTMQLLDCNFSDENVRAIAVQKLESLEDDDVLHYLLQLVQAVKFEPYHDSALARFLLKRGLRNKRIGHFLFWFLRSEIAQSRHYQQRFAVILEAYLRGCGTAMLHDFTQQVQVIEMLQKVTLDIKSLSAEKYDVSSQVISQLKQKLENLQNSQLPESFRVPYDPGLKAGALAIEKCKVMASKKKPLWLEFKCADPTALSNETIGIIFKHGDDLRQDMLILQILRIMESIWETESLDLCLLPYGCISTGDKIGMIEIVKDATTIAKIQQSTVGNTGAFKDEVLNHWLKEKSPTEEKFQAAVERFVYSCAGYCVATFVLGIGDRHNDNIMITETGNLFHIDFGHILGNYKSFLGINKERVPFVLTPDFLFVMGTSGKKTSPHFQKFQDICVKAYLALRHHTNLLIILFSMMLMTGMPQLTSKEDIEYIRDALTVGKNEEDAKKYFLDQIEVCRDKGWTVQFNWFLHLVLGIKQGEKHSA

[6] = target: Phosphatidylinositol 4,5-bisphosphate 3-kinase catalytic subunit beta isoform (Homo sapiens) (UniProt P42338); test: Inhibition of wild type PI3K-beta (unknown origin) assessed as decrease in ATP consumption at 10 uM using phosphotidylinositol bisphosphate and ATP measured after 60 mins by Kinase-Glo reagent based luminescence assay
Chain of Phosphatidylinositol 4,5-bisphosphate 3-kinase catalytic subunit beta isoform (Homo sapiens) (P42338 whole entry, looked up, canonical isoform): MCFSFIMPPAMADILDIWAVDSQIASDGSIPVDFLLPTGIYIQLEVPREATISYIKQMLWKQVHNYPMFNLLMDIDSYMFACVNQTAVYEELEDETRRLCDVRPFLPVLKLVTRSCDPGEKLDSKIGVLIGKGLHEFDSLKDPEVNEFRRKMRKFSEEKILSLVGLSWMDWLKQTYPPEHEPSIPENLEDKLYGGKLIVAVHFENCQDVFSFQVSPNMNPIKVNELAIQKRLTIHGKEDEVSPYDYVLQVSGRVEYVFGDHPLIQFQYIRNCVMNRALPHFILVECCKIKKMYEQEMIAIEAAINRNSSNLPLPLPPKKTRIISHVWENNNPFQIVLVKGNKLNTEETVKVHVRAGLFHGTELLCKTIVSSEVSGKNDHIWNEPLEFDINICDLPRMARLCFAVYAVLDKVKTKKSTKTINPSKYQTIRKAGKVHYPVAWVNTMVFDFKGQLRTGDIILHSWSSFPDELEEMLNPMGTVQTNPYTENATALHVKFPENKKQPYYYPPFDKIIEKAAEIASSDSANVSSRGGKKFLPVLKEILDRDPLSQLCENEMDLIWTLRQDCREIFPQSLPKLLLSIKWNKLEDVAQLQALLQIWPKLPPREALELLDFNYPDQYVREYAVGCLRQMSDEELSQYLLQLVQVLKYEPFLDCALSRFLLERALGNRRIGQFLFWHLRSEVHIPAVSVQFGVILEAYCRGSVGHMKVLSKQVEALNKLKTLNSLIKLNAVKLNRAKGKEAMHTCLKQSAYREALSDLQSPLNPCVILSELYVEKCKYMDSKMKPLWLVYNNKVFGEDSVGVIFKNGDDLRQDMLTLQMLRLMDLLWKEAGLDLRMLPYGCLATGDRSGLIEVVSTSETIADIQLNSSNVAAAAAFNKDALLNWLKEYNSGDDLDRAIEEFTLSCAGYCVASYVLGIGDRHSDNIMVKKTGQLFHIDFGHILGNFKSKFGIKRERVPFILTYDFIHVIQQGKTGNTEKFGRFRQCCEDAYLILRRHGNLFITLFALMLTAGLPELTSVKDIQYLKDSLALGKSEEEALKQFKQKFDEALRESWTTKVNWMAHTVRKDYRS

Platelet = test: Inhibition of platelet aggregation in human platelet-rich plasma pre-incubated for 5 mins before ADP stimulation for 10 mins; type: functional, cell-based
[7] = target: T1, cGMP-inhibited 3',5'-cyclic phosphodiesterase 3A; test: Inhibition of human PDE3A by HTRF assay
[8] = target: T3, Phosphatidylinositol 4,5-bisphosphate 3-kinase catalytic subunit delta isoform (Homo sapiens, UniProt O00329); test: Inhibition of wild type PI3K-delta (unknown origin) assessed as decrease in ATP consumption using phosphotidylinositol bisphosphate and ATP measured after 60 mins by Kinase-Glo reagent based luminescence assay
T3 sequence (O00329 whole entry): T2 sequence (whole entry)

| Compound | inhibition [1] [%] | inhibition [2] [%] | inhibition [3] [%] | inhibition [4] [%] | inhibition [5] [%] | inhibition [6] [%] | IC50 (Platelet) [µM] | IC50 [7] [µM] | IC50 [8] [nM] |
| --- | --- | --- | --- | --- | --- | --- | --- | --- | --- |
| CN1CCN(CCOc2ccc3c(=O)nc(N4CCOCC4)oc3c2-c2ccccc2)CC1 | 9.8 | 24 | 11.4 | 53.4 | 4.3 | 31.8 | 10 |  |  |
| O=c1nc(N2CCOCC2)oc2c(-c3ccccc3)c(OCc3cccnc3)ccc12 | 18 | 57.9 | 50.4 | 85.5 | 25.7 | 64.4 | 80 |  | 7200 |
| O=c1nc(N2CCOCC2)oc2c(-c3cc4ccccc4s3)c(OCc3ccccn3)ccc12 | 47.2 |  | 77.9 | 24.6 | -1 |  |  | 3.01 |  |
| O=c1nc(N2CCOCC2)oc2c(-c3ccsc3)c(OCc3ccccn3)ccc12 | 39.7 | -8.1 | 88.8 | 18 | 4.4 | -3 |  | 3.05 |  |
| CC(C)Cn1c(=O)n(C)c(=O)c2[nH]cnc21 [ISOBUTYLMETHYLXANTHINE] |  |  |  |  |  |  |  | 7 |  |
| O=c1nc(N2CCOCC2)oc2c(-c3cccs3)c(OCc3ccccn3)ccc12 | 40.1 | -0.6 | 74.5 | 21.8 | 0.1 | 4.1 |  | 2.95 |  |
| O=c1nc(N2CCOCC2)oc2c(-c3cc4ccccc4s3)c(OCc3cccnc3)ccc12 | 8.9 | 2.6 | 56.4 | 75.6 | -8.1 | 18.1 |  |  | 2700 |

Now from value to compound:

| inhibition [1] [%] | inhibition [2] [%] | inhibition [3] [%] | inhibition [4] [%] | inhibition [5] [%] | inhibition [6] [%] | IC50 (Platelet) [µM] | IC50 [7] [µM] | IC50 [8] [nM] | Compound |
| --- | --- | --- | --- | --- | --- | --- | --- | --- | --- |
| 25.7 | 59.2 | 71.3 | 88.9 | 38.1 | 66.4 |  | 2.75 | 4000 | O=c1nc(N2CCOCC2)oc2c(-c3ccccc3)c(OCc3ccccn3)ccc12 |
| 33.8 | 28.9 | 50.4 | 85.4 | 12.6 | 42.9 |  |  | 2700 | COc1ccc(-c2c(OCc3ccccn3)ccc3c(=O)nc(N4CCOCC4)oc23)cc1 |
| 33.5 | 30 | 29.8 | 87.8 | -2.2 | 39.3 |  |  | 2800 | COc1ccc(-c2c(OCc3cccnc3)ccc3c(=O)nc(N4CCOCC4)oc23)cc1 |
